Test results published in PubChem BioAssay AID330 (DTP/NCI, 2004).
Where “and” joins values, the source holds several entries; their conditions need not be identical. Equal entries are not always repeated. Inconclusive results and toxic doses are left out.

Test system: P388 leukemia ip, CD2F1 mice, survival T/C
Experiment: NCI In Vivo Anticancer Drug Screen. Data for tumor model P388 Leukemia (intraperitoneal) in CD2F1 (CDF1) mice
Conditions: endpoint: median survival time, higher = longer survival
Outline: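 Mice carrying the transplanted tumor received test compound or vehicle. Survival was recorded in each group, and the value is the treated-group measurement divided by that of the vehicle-treated control group.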

CN(Cc1cnc2nc(N)nc(N)c2n1)c1ccc(C(=O)N[C@@H](CCC(=O)O)C(=O)O)cc1
T/C (dose: 0.09 mg/kg/injection, schedule: Q01DX009 (ip), vehicle: sodium bicarbonate): 120 % of control
T/C (dose: 0.18 mg/kg/injection, schedule: Q01DX009 (ip), vehicle: sodium bicarbonate): 113 % of control
T/C (dose: 0.25 mg/kg/injection, schedule: Q01DX005 (ip), vehicle: sodium bicarbonate): 117 % of control
T/C (dose: 0.25 mg/kg/injection, schedule: Q01DX009 (ip), vehicle: sodium bicarbonate): 150 % of control and 154 % of control
T/C (dose: 0.32 mg/kg/injection, schedule: Q01DX009 (ip), vehicle: sodium bicarbonate): 166 % of control and 168 % of control
T/C (dose: 0.38 mg/kg/injection, schedule: Q01DX009 (ip), vehicle: other): 163 % of control
T/C (dose: 0.38 mg/kg/injection, schedule: Q01DX009 (ip), vehicle: saline): 169 % of control
T/C (dose: 0.38 mg/kg/injection, schedule: Q## X009 (ip), vehicle: sodium bicarbonate): 154 % of control
T/C (dose: 0.48 mg/kg/injection, schedule: Q01DX009 (ip), vehicle: sodium bicarbonate): 168 % of control
T/C (dose: 0.5 mg/kg/injection, schedule: Q01DX009 (ip), vehicle: sodium bicarbonate): 176 % of control and 177 % of control
T/C (dose: 0.54 mg/kg/injection, schedule: Q01DX009 (ip), vehicle: sodium bicarbonate): 175 % of control and 180 % of control
T/C (dose: 0.6 mg/kg/injection, schedule: Q01DX009 (ip), vehicle: clinical formulation): 164 % of control
T/C (dose: 0.62 mg/kg/injection, schedule: Q01DX005 (ip), vehicle: sodium bicarbonate): 158 % of control
T/C (dose: 0.73 mg/kg/injection, schedule: Q01DX009 (ip), vehicle: sodium bicarbonate): 184 % of control
T/C (dose: 0.75 mg/kg/injection, schedule: Q01DX005 (ip), vehicle: sodium bicarbonate): 166 % of control
T/C (dose: 0.75 mg/kg/injection, schedule: Q01DX009 (ip), vehicle: other): 195 % of control
T/C (dose: 0.75 mg/kg/injection, schedule: Q01DX009 (ip), vehicle: saline): 200 % of control
T/C (dose: 0.75 mg/kg/injection, schedule: Q01DX015 (ip), vehicle: sodium bicarbonate): 186 % of control
T/C (dose: 0.75 mg/kg/injection, schedule: Q## X009 (ip), vehicle: sodium bicarbonate): 190 % of control
T/C (dose: 0.8 mg/kg/injection, schedule: Q01DX009 (ip), vehicle: clinical formulation): 164 % of control
T/C (dose: 1.0 mg/kg/injection, schedule: Q01DX009 (ip), vehicle: clinical formulation): 180 % of control
T/C (dose: 1.0 mg/kg/injection, schedule: Q01DX009 (ip), vehicle: sodium bicarbonate): 177 % of control and 194 % of control and 195 % of control
T/C (dose: 1.0 mg/kg/injection, schedule: Q02DX005 (ip), vehicle: sodium bicarbonate): 160 % of control
T/C (dose: 1.1 mg/kg/injection, schedule: Q01DX009 (ip), vehicle: sodium bicarbonate): 192 % of control
T/C (dose: 1.2 mg/kg/injection, schedule: Q01DX009 (ip), vehicle: clinical formulation): 189 % of control
T/C (dose: 1.25 mg/kg/injection, schedule: Q01DX005 (ip), vehicle: sodium bicarbonate): 182 % of control
T/C (dose: 1.3 mg/kg/injection, schedule: Q01DX009 (ip), vehicle: sodium bicarbonate): 196 % of control
T/C (dose: 1.5 mg/kg/injection, schedule: Q01DX005 (ip), vehicle: sodium bicarbonate): 182 % of control
T/C (dose: 1.7 mg/kg/injection, schedule: Q01DX009 (ip), vehicle: sodium bicarbonate): 106 % of control
T/C (dose: 1.75 mg/kg/injection, schedule: Q01DX005 (ip), vehicle: sodium bicarbonate): 182 % of control
T/C (dose: 2.0 mg/kg/injection, schedule: Q01DX005 (iv), vehicle: sodium bicarbonate): 161 % of control
T/C (dose: 2.0 mg/kg/injection, schedule: Q02DX005 (ip), vehicle: saline): 105 % of control
T/C (dose: 2.0 mg/kg/injection, schedule: Q02DX005 (ip), vehicle: sodium bicarbonate): 163 % of control and 192 % of control
T/C (dose: 2.3 mg/kg/injection, schedule: Q04DX003 (ip), vehicle: saline): 181 % of control
T/C (dose: 2.5 mg/kg/injection, schedule: Q01DX005 (ip), vehicle: sodium bicarbonate): 187 % of control
T/C (dose: 2.5 mg/kg/injection, schedule: Q01DX006 (ip), vehicle: sodium bicarbonate): 179 % of control
T/C (dose: 2.5 mg/kg/injection, schedule: Q04DX003 (ip), vehicle: sodium bicarbonate): 183 % of control
T/C (dose: 3.0 mg/kg/injection, schedule: Q01DX006 (ip), vehicle: sodium bicarbonate): 170 % of control
T/C (dose: 3.0 mg/kg/injection, schedule: Q01DX015 (ip), vehicle: sodium bicarbonate): 110 % of control
T/C (dose: 3.0 mg/kg/injection, schedule: Q02DX005 (ip), vehicle: saline): 105 % of control
T/C (dose: 3.0 mg/kg/injection, schedule: Q02DX005 (ip), vehicle: sodium bicarbonate): 182 % of control
T/C (dose: 3.0 mg/kg/injection, schedule: Q## X009 (ip), vehicle: sodium bicarbonate): 118 % of control
T/C (dose: 3.13 mg/kg/injection, schedule: Q01DX001 (ip), vehicle: sodium bicarbonate): 122 % of control
T/C (dose: 3.5 mg/kg/injection, schedule: Q01DX006 (ip), vehicle: sodium bicarbonate): 187 % of control
T/C (dose: 4.0 mg/kg/injection, schedule: Q01DX005 (iv), vehicle: sodium bicarbonate): 190 % of control
T/C (dose: 4.32 mg/kg/injection, schedule: Q04DX003 (ip), vehicle: sodium bicarbonate): 171 % of control
T/C (dose: 4.5 mg/kg/injection, schedule: Q04DX003 (ip), vehicle: sodium bicarbonate): 174 % of control
T/C (dose: 4.6 mg/kg/injection, schedule: Q04DX003 (ip), vehicle: saline): 204 % of control
T/C (dose: 5.0 mg/kg/injection, schedule: Q04DX003 (ip), vehicle: sodium bicarbonate): 189 % of control
T/C (dose: 5.18 mg/kg/injection, schedule: Q04DX003 (ip), vehicle: sodium bicarbonate): 180 % of control
T/C (dose: 6.48 mg/kg/injection, schedule: Q04DX003 (ip), vehicle: sodium bicarbonate): 182 % of control
T/C (dose: 7.2 mg/kg/injection, schedule: Q04DX003 (ip), vehicle: sodium bicarbonate): 199 % of control
T/C (dose: 7.78 mg/kg/injection, schedule: Q04DX002 (ip), vehicle: sodium bicarbonate): 171 % of control
T/C (dose: 8.64 mg/kg/injection, schedule: Q04DX003 (ip), vehicle: sodium bicarbonate): 201 % of control
T/C (dose: 9.0 mg/kg/injection, schedule: Q04DX003 (ip), vehicle: sodium bicarbonate): 116 % of control
T/C (dose: 9.0 mg/kg/injection, schedule: Q04DX003 (iv), vehicle: sodium bicarbonate): 174 % of control
T/C (dose: 9.72 mg/kg/injection, schedule: Q04DX002 (ip), vehicle: sodium bicarbonate): 175 % of control
T/C (dose: 10.0 mg/kg/injection, schedule: Q04DX004 (ip), vehicle: sodium bicarbonate): 189 % of control
T/C (dose: 10.8 mg/kg/injection, schedule: Q04DX003 (ip), vehicle: sodium bicarbonate): 202 % of control
T/C (dose: 13.0 mg/kg/injection, schedule: Q04DX002 (ip), vehicle: sodium bicarbonate): 165 % of control
T/C (dose: 14.4 mg/kg/injection, schedule: Q04DX003 (ip), vehicle: sodium bicarbonate): 181 % of control
T/C (dose: 15.0 mg/kg/injection, schedule: Q04DX003 (ip), vehicle: sodium bicarbonate): 117 % of control
T/C (dose: 16.2 mg/kg/injection, schedule: Q04DX002 (ip), vehicle: sodium bicarbonate): 195 % of control
T/C (dose: 18.0 mg/kg/injection, schedule: Q01DX001 (ip), vehicle: sodium bicarbonate): 173 % of control
T/C (dose: 18.0 mg/kg/injection, schedule: Q04DX003 (ip), vehicle: sodium bicarbonate): 114 % of control
T/C (dose: 18.0 mg/kg/injection, schedule: Q04DX003 (iv), vehicle: sodium bicarbonate): 194 % of control
T/C (dose: 18.4 mg/kg/injection, schedule: Q04DX003 (ip), vehicle: saline): 177 % of control
T/C (dose: 20.0 mg/kg/injection, schedule: Q04DX004 (ip), vehicle: sodium bicarbonate): 189 % of control
T/C (dose: 21.6 mg/kg/injection, schedule: Q04DX002 (ip), vehicle: sodium bicarbonate): 191 % of control
T/C (dose: 25.0 mg/kg/injection, schedule: Q04DX002 (ip), vehicle: sodium bicarbonate): 115 % of control
T/C (dose: 25.0 mg/kg/injection, schedule: Q04DX004 (ip), vehicle: sodium bicarbonate): 180 % of control
T/C (dose: 27.0 mg/kg/injection, schedule: Q04DX002 (ip), vehicle: sodium bicarbonate): 201 % of control
T/C (dose: 33.3 mg/kg/injection, schedule: Q01DX001 (ip), vehicle: sodium bicarbonate): 109 % of control
T/C (dose: 36.0 mg/kg/injection, schedule: Q01DX001 (ip), vehicle: sodium bicarbonate): 150 % of control
T/C (dose: 36.0 mg/kg/injection, schedule: Q01DX001 (iv), vehicle: sodium bicarbonate): 156 % of control
T/C (dose: 36.0 mg/kg/injection, schedule: Q04DX003 (iv), vehicle: sodium bicarbonate): 124 % of control
T/C (dose: 40.0 mg/kg/injection, schedule: Q01DX001 (ip), vehicle: sodium bicarbonate): 150 % of control
T/C (dose: 42.0 mg/kg/injection, schedule: Q04DX002 (ip), vehicle: sodium bicarbonate): 105 % of control
T/C (dose: 45.0 mg/kg/injection, schedule: Q04DX002 (ip), vehicle: sodium bicarbonate): 200 % of control
T/C (dose: 50.0 mg/kg/injection, schedule: Q04DX003 (ip), vehicle: sodium bicarbonate): 111 % of control
T/C (dose: 72.0 mg/kg/injection, schedule: Q01DX001 (iv), vehicle: sodium bicarbonate): 161 % of control
T/C (dose: 100.0 mg/kg/injection, schedule: Q01DX001 (ip), vehicle: sodium bicarbonate): 158 % of control and 161 % of control
T/C (dose: 125.0 mg/kg/injection, schedule: Q01DX001 (ip), vehicle: sodium bicarbonate): 166 % of control
T/C (dose: 150.0 mg/kg/injection, schedule: Q01DX001 (ip), vehicle: sodium bicarbonate): 158 % of control
T/C (dose: 200.0 mg/kg/injection, schedule: Q01DX001 (ip), vehicle: sodium bicarbonate): 170 % of control
T/C (dose: 400.0 mg/kg/injection, schedule: Q01DX001 (ip), vehicle: sodium bicarbonate): 181 % of control
